# pIC50: −log10 of the molar value.
# Assays:
# [1] = target: Non-receptor tyrosine-protein kinase TYK2 (Homo sapiens, UniProt P29597); assay: (§1) JAK/TYK2 Assay: 10 mM test compound stock or 1 mM control compound stock (tofocitinib, ruxolitinib or staurosporine) in DMSO was diluted to 0.4 mM in DMSO. A 3-fold series dilution was then performed in DMSO to generate 10 different compound concentrations. The assay was carried out in 384-well white plate. 0.5 uL of 40× compound DMSO solution at different concentrations was mixed with 10 uL 2× enzyme prepared in reaction buffer (20 mM HEPES, 10 mM MgCl2, 0.01% Tween, 1 mM DTT, pH 7.5). 10 uL 2× substrate mixture prepared in reaction buffer was then added to start the reaction. A short spin was done to settle down all solutions to the bottom of the plate. Final concentrations of test compound in the reaction mixture were 10000, 3333, 1111, 370, 123, 41.2, 13.7, 4.57, 1.52and 0.51 nM. Concentrations of control compound were ten times less. Enzymatic reaction was conducted at 25° C. for 1-2 hours. 10 uL of Kinase Glo Reagents was added to stop the reaction and generate the luminescent signal which was measured using Envision. Luminescence signal was inversely related to kinase activity. […] The mixture without any compound was the positive control.
# [2] = target: Tyrosine-protein kinase JAK1 (Homo sapiens, UniProt P23458); assay: as §1
# [3] = target: T1, Tyrosine-protein kinase JAK3 (Homo sapiens, UniProt P52333); assay: as §1
# T1 sequence (P52333 whole entry): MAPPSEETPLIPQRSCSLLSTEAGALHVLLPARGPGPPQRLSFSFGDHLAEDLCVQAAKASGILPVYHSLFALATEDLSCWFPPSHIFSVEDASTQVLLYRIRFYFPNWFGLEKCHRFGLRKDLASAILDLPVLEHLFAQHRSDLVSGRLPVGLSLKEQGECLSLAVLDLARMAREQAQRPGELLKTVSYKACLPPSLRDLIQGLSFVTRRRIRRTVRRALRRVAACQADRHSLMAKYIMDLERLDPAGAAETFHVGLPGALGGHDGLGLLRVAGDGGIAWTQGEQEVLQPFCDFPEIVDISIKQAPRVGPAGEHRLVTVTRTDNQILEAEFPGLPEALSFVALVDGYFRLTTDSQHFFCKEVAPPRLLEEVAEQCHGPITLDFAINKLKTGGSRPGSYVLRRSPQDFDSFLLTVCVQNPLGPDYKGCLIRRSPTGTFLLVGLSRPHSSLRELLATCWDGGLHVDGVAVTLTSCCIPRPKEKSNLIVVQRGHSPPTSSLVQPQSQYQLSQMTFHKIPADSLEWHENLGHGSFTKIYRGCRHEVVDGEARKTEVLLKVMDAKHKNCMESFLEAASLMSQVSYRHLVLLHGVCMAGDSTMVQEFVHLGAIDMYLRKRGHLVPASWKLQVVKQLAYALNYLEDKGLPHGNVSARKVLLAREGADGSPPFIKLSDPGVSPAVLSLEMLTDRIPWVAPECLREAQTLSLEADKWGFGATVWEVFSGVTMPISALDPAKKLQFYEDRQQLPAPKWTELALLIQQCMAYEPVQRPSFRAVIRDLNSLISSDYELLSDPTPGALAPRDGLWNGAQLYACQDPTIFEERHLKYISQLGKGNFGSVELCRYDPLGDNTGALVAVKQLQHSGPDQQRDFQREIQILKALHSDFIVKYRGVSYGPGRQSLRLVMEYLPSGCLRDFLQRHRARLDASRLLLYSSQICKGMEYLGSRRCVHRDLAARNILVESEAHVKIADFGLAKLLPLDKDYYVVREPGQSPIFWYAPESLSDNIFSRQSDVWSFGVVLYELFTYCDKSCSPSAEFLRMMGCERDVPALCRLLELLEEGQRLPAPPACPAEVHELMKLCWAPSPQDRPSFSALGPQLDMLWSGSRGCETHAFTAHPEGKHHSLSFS
# [4] = target: Tyrosine-protein kinase JAK2 (Homo sapiens, UniProt O60674); assay: as §1, with “Final concentrations of test compound in the reaction mixture were 10000, 3333, 1111, 370, 123, 41.2, 13.7, 4.57, 1.52and 0.51 nM.” left out
# Chain of Tyrosine-protein kinase JAK2 (O60674 whole entry): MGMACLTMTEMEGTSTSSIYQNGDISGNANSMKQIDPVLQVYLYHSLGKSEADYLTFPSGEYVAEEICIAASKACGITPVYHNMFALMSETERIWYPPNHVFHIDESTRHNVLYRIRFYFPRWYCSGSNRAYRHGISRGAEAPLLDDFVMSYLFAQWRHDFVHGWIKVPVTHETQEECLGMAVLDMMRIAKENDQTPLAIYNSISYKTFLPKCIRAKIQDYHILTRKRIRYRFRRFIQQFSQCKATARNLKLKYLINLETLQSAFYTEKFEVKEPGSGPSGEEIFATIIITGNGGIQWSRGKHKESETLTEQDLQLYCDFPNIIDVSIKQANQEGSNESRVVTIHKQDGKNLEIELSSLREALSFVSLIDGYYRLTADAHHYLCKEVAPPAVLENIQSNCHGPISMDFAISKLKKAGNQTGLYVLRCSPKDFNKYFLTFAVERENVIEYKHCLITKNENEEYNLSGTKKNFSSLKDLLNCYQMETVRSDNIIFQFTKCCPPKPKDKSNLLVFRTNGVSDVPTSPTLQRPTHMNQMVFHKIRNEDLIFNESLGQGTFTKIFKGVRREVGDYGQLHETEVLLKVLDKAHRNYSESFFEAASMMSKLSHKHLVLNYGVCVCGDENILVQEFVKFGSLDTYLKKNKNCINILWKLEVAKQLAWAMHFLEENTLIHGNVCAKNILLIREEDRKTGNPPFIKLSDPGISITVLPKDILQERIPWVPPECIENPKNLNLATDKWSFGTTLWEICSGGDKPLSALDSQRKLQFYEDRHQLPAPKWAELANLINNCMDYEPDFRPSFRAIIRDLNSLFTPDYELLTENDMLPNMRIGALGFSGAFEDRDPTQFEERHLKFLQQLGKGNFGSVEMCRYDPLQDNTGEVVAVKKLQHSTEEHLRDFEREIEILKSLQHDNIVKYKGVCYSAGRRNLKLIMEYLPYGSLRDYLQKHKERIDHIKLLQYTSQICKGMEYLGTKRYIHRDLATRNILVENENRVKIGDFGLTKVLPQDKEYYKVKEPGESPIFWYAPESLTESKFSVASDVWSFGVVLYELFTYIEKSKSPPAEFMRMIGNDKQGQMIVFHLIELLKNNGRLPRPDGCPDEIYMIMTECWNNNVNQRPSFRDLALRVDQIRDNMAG
# Chain of Non-receptor tyrosine-protein kinase TYK2 (P29597 whole entry): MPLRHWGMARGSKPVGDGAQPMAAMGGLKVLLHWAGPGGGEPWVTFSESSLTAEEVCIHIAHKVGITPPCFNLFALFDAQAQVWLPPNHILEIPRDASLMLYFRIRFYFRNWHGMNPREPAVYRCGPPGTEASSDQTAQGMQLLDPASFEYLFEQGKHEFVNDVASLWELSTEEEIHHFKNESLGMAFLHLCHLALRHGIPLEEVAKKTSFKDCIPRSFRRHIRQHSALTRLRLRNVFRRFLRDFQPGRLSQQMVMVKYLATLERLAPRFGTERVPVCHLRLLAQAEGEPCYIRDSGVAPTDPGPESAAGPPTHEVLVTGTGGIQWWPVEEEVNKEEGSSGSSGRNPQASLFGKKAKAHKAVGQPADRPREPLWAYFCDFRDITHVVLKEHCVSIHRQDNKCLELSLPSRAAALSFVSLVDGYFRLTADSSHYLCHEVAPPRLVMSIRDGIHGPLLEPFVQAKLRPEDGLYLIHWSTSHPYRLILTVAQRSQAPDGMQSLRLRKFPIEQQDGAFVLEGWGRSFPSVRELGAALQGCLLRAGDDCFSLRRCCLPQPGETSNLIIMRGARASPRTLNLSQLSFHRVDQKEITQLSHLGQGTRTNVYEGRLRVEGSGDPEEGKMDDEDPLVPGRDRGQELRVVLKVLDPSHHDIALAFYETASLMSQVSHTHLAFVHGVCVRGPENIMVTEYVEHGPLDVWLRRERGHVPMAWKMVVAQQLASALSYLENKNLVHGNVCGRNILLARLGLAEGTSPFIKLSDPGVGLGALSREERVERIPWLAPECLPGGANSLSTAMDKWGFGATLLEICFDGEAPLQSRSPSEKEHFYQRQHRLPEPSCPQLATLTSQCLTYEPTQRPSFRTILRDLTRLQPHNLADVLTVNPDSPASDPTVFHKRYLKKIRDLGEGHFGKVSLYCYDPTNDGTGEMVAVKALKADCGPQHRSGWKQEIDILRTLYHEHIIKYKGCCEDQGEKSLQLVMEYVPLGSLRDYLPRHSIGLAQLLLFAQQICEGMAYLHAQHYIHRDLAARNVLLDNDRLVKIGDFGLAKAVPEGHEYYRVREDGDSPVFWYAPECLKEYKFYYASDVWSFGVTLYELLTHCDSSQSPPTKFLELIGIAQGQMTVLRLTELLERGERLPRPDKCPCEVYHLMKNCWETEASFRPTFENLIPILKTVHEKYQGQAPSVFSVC
# Chain of Tyrosine-protein kinase JAK1 (P23458 whole entry): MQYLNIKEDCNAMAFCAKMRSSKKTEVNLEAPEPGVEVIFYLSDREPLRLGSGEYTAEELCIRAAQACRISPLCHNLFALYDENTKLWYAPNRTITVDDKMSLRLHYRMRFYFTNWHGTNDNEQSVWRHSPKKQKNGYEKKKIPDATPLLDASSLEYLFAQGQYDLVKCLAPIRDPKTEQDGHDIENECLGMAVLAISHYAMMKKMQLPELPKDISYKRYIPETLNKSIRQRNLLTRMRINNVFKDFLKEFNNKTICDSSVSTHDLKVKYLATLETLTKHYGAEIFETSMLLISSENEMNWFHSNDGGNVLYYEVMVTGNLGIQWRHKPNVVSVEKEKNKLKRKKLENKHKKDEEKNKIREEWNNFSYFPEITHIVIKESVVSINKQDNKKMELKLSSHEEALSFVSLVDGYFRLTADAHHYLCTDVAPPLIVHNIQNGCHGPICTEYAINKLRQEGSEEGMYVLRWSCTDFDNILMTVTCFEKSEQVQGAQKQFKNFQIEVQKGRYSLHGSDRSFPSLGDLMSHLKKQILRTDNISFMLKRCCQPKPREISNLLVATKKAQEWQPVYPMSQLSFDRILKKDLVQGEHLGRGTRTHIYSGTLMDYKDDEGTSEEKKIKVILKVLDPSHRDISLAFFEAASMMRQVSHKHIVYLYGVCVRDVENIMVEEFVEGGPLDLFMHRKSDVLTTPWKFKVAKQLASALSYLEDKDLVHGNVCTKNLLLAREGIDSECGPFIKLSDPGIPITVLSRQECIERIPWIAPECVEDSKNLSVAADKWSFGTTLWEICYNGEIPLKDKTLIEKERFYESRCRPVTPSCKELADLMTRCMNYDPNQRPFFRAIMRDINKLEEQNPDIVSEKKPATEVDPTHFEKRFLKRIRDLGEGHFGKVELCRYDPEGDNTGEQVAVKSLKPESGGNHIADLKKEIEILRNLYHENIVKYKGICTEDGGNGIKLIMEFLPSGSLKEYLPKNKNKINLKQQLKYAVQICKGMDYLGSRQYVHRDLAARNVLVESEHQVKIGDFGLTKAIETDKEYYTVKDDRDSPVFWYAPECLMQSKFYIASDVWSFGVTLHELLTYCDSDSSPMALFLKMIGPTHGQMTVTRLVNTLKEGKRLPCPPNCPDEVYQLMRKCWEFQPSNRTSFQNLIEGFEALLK
pIC50 [1],pIC50 [2],pIC50 [3],pIC50 [4],Structure (SMILES)
> 7.00,> 7.00,> 7.00,> 7.00,CC[C@H](Cn1ccc2cnc(Nc3cnn([C@@H](CCO)C(=O)O)c3)nc21)C(C)C
> 7.00,> 7.00,> 7.00,> 7.00,CCC(CC)Cn1ccc2cnc(Nc3cnn(CC(=O)OCC4OC(O)CC(O)C4O)c3)nc21 (stereo not drawn)
